Article PMC5506005, “A novel protein kinase inhibitor IMB-YH-8 with anti-tuberculosis activity” (Scientific Reports, 2017)
≈ marks a conversion by molar mass, not a printed value. Read-outs that look alike come from different tables or passages of the source.

How the values were obtained:
[1] = test system: clinical isolates of M. tuberculosis; assay: microbe, parasite or virus in culture; assay type: cell-based; settings: Mycobacterium tuberculosis, clinical isolate 31251, sensitive
[2] = test system: M. tuberculosis gene transcripts (PknB/SigH regulatory pathways); assay: Gene expression by microarray; assay type: cell-based; settings: 4 h; for fold induction at 2.5 µg/mL: Mycobacterium tuberculosis; for Regulation: 2.5 μg/ml
Method: The drug-treated (2.5 μg/ml IMB-YH-8), together with control (DMSO) mycobacterial cultures, were incubated at 37 °C for 4 h. Total RNAs were isolated by RiboPure^TM-Bacteria Kit (Life Technology, AM1925) according to the manufacturer’s instructions. The quantity and quality of each RNA sample was determined using NanoDrop ND-2000 spectrophotometer (Thermo Scientific, Wilmington, DE) and Agilent 2100 Bioanalyzer (Agilent Technologies, Santa Clara, CA).
The qualified RNA samples were labeled and hybridized on Agilent 4 × 44 K Custom design Gene Expression Microarray according to manufacturer protocol (Agilent, Santa Clara, CA). In brief, 100 ng of each RNA sample was amplified to cRNA and labeled with Cy-3 using Agilent Low Input Quick Amp Labeling Kit. The labeled samples were hybridized for 16 hours at 10 rotations per minute. After hybridization, the arrays were washed and scanned by Agilent scanner and then the image was analyzed by Agilent Feature Extraction v11.5. Data obtained from Feature Extraction were imported to GeneSpring GX version 13.1 (Agilent Technologies, Santa Clara, CA) for 75th percentile shift and baseline to median of all samples normalization.

[3] = test system: Mycobacterium marinum; parameters: method as in earlier work; settings: previous high throughput screening study; cited from earlier work
[4] = test system: M. tuberculosis H37Rv; assay: Scanning electron microscopy of cell morphology; assay type: cell-based; settings: 1 μg/ml for 5 days, SEM
Method: To determine whether IMB-YH-8 affects the morphology of M. tuberculosis H37Rv, scanning electron microscopy (SEM) was performed. H37Rv was grown to early log phase (optical density at 600 nm, ~0.2). Then 1 μg/ml IMB-YH-8 was added to treat cells, followed by incubation at 37 °C for 5 days. Cells were harvested by low-speed centrifugation and washed in 0.1 M phosphate buffer (pH 7.4). The cells were then fixed in 0.1 M phosphate buffer (pH 7.4) containing 2.5% glutaraldehyde and 0.5% paraformaldehyde. The samples were submitted to the Instrument Center of Institute of Microbiology, Chinese Academy of Sciences for further analysis. Observations were carried out using a SEM (SU8010; Hitachi, Tokyo, Japan). Untreated H37Rv were also processed as control.

[5] = in vitro; settings: human
[6] = biological target: PknF (Mycobacterium tuberculosis, UniProt P9WI75); assay: In vitro protein kinase assay (Kinase Glo), auto-phosphorylation of PknF; assay type: biochemical, M. tuberculosis
PknF, sequence (P9WI75 whole entry): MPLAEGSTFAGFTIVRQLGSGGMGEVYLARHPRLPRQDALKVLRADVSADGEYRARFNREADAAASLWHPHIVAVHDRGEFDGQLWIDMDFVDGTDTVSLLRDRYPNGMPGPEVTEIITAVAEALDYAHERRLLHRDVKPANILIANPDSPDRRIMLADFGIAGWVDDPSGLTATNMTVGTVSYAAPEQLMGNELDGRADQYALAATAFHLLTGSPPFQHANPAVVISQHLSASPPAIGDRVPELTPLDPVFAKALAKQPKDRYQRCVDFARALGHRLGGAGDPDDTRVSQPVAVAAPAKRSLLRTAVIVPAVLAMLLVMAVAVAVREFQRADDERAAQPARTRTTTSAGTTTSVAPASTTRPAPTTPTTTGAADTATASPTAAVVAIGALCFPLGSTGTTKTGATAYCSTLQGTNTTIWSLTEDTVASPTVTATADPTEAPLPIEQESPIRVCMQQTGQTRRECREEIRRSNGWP

[7] = test system: THP-1 cells; settings: calculated as the CC50/MIC (THP-1 / H37Rv)
[8] = test system: M. tuberculosis H37Rv; assay: MIC by microplate Alamar blue assay (MABA), H37Rv; assay type: cell-based; settings: Mycobacterium tuberculosis
[9] = biological target: T1, PknB (Mycobacterium tuberculosis, UniProt P9WI81); assay: Surface plasmon resonance (BIAcore) binding to PknB; parameters: species or system M. tuberculosis; settings: single cycle kinetics, 1:1 binding model, 25 °C, read-out: Kd for binding to PknB (SPR)
T1 sequence (P9WI81 11-274 limits assumed): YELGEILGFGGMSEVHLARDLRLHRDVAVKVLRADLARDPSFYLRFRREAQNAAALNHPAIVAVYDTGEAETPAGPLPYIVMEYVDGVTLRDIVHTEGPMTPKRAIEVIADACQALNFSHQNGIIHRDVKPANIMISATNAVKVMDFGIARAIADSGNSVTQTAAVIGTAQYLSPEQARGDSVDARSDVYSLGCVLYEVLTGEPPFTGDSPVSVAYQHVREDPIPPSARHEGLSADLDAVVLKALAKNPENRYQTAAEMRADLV

[10] = biological target: PknG (Mycobacterium tuberculosis, UniProt P9WI73); assay: In vitro protein kinase assay (Kinase Glo), auto-phosphorylation of PknG; assay type: biochemical, M. tuberculosis
PknG, sequence (P9WI73 whole entry): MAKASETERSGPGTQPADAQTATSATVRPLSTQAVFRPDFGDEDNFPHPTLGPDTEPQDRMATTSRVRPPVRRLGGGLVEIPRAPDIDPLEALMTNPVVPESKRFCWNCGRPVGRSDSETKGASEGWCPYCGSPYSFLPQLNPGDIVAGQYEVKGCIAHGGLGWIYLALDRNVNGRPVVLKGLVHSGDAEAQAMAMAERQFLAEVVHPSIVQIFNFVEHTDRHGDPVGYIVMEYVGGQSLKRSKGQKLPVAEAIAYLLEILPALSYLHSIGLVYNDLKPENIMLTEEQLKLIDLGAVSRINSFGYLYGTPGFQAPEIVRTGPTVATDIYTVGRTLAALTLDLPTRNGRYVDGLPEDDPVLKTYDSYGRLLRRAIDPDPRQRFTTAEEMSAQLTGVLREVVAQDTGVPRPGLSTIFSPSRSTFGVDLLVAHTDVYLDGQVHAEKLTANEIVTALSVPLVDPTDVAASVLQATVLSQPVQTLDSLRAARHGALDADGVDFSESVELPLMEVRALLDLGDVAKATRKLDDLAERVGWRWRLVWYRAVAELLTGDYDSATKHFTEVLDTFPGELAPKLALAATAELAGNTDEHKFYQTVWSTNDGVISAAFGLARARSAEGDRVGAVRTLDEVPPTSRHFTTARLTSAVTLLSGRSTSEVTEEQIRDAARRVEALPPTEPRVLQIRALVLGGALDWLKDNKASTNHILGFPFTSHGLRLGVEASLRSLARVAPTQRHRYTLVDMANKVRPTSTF

[11] = test system: intracellular M. tuberculosis H37Rv; assay: Intracellular activity assay in infected THP-1 cells (CFU); assay type: cell-based; settings: 3 days; for Log10CFU: infected THP-1 cells, mean ± SD, untreated 5.03 ± 0.12
[12] = biological target: T1, PknB; assay: Phosphorylation of GarA by PknB, Phos-tag SDS-PAGE; assay type: biochemical, M. tuberculosis; settings: non-phosphorylated GarA increased in a dose-dependent manner
Method: In vitro phosphorylation of GarA (5 μM) by PknB (3 μM) was carried out in 50 μl reaction mixture (25 mM Tris-HCl (pH = 7.4), 5 mM MgCl2, 2 mM MnCl2). The reaction was initiated with the additional of 100 μM ATP and incubated at 37 °C for 3 hours. The reaction was terminated with the addition of SDS-PAGE sample buffer and heating the mixture at 100 °C for 5 min. The reaction mixtures were analyzed by 12% SDS-PAGE with or without Phos-tag SDS-PAGE to differentiate the phosphorylated and non-phosphorylated GarA. Phos-tag SDS-PAGE was performed with gel containing 20 μM Phos-tag acrylamide (Wako Pure Chemical Industries, Japan) and 100 µM MnCl2 according to the manufacturer’s instructions. Electrophoresis was performed at 4 °C in Tris-glycine SDS-PAGE running buffer at 30 mA for 2 h. Images were adjusted for contrast and brightness using Bio-Rad image lab software version 2.01.

[13] = biological target: T2, PknA (Mycobacterium tuberculosis, UniProt P9WI83); assay: In vitro protein kinase assay (Kinase Glo), auto-phosphorylation of PknA; assay type: biochemical, M. tuberculosis
T2 sequence (P9WI83 1-431): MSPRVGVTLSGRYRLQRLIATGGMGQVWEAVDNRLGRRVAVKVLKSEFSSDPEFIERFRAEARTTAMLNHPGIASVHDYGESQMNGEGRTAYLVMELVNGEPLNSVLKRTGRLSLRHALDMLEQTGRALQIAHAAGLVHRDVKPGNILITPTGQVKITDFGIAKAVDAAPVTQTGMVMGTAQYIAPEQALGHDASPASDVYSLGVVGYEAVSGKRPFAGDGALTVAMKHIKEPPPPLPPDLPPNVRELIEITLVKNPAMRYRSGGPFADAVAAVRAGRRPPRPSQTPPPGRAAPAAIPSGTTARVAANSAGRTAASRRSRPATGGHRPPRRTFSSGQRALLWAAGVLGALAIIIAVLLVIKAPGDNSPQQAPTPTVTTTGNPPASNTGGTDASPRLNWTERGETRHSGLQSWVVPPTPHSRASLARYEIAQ

[14] = test system: M. tuberculosis H37Rv gene transcripts (PknB/SigH regulatory pathways); assay type: cell-based; settings: 2.5 μg/ml, 4 h; for Real-time reverse transcription PCR Normalized ΔCt (mean ± SD): normalized to sigA mRNA
[15] = cited from earlier work
[16] = test system: Mycobacterium smegmatis; parameters: method as in earlier work; settings: previous high throughput screening study; cited from earlier work
[17] = biological target: PknH (Mycobacterium tuberculosis, UniProt P9WI71); assay: In vitro protein kinase assay (Kinase Glo), auto-phosphorylation of PknH; assay type: biochemical
PknH, sequence (P9WI71 whole entry): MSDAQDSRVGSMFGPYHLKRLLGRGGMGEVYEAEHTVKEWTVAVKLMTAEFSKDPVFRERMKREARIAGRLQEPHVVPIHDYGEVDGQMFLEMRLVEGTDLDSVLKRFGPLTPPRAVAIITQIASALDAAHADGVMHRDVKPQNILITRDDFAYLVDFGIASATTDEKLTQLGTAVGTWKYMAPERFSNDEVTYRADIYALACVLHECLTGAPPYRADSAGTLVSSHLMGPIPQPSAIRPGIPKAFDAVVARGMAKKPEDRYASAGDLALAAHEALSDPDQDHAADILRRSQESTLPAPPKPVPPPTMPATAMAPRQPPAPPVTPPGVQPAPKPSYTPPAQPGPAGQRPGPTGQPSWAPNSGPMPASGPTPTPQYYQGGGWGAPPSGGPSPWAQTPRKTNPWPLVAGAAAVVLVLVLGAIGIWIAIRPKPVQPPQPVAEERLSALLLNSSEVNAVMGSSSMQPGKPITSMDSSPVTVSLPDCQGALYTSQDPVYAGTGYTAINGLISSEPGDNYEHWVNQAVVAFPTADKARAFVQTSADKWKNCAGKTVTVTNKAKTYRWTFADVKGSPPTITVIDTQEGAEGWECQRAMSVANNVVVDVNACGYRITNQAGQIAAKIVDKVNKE

[18] = biological target: human kinase Akt1 (Homo sapiens, UniProt P31749); assay: In vitro protein kinase assay (Kinase Glo), auto-phosphorylation of Akt1; assay type: biochemical
human kinase Akt1, sequence (P31749 whole entry): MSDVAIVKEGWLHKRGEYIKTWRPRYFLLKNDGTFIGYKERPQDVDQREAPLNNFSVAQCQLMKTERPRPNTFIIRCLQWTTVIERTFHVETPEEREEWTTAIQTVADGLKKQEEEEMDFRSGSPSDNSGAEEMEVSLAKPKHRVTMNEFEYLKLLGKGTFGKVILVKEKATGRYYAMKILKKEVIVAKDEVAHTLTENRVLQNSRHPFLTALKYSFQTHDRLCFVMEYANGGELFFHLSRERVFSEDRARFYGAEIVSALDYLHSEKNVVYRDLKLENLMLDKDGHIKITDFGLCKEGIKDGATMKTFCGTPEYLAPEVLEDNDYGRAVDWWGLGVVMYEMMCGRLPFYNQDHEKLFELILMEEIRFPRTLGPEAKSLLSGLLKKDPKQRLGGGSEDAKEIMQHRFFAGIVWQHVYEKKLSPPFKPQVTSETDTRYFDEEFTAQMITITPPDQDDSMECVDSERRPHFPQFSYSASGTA

[19] = biological target: T1, PknB; assay: In vitro protein kinase assay (Kinase Glo), auto-phosphorylation of PknB; assay type: biochemical, M. tuberculosis; settings: non-radioactive Kinase Glo assay, 100 μM ATP
[20] = biological target: PknB (Mycobacterium tuberculosis, UniProt P9WI81); assay: biochemical; assay type: binding, M. tuberculosis
Target sequence in this assay (P9WI81 1-279 limits assumed): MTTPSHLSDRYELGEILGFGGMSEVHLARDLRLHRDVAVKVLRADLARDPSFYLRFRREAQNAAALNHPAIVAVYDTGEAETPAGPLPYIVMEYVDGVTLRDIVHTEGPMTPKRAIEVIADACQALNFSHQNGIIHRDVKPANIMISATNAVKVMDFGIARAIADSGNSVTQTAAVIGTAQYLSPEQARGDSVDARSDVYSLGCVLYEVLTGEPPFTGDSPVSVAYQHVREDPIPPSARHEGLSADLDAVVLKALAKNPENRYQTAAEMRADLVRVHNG

SMILES: COC(=O)/C=C/C(=O)c1ccc(OC)cc1 [IMB-YH-8]
- MIC [1]: 0.25 µg/mL (≈ 1.14 µM)
- fold induction at 2.5 µg/mL ([2]; read-out: Fold induction in microarray (mean ± SD), gene Rv2466c, 2.5 μg/ml): 6.86 ± 1.93
- fold induction at 2.5 µg/mL ([2]; read-out: Fold induction in microarray (mean ± SD), gene rshA (Rv3221A), 2.5 μg/ml): 6.07 ± 0.33
- fold induction at 2.5 µg/mL ([2]; read-out: Fold induction in microarray (mean ± SD), gene sigH (Rv3223c), 2.5 μg/ml): 2.92 ± 0.09
- fold induction at 2.5 µg/mL ([2]; read-out: Fold induction in microarray (mean ± SD), gene trxB2 (Rv3913), 2.5 μg/ml): 6.9 ± 0.75
- fold induction at 2.5 µg/mL ([2]; read-out: Fold induction in microarray (mean ± SD), gene trxC (Rv3914), 2.5 μg/ml): 8.03 ± 0.33
- Regulation ([2]; gene Rv2466c): Up
- Regulation ([2]; gene rshA (Rv3221A)): Up
- Regulation ([2]; gene sigH (Rv3223c)): Up
- Regulation ([2]; gene trxB2 (Rv3913)): Up
- Regulation ([2]; gene trxC (Rv3914)): Up
- inhibition of Mycobacterium marinum [3]: inhibited
- proportion of ruptured cells [4]: 61.5%
- CC50 at 48 h [5]: 7.61 µg/mL (≈ 34.6 µM)
- IC50 [6]: 503 µM
- SI, selectivity index [7]: 30.4
- MIC [8]: 0.25 µg/mL
- MIC ([8]; converted from 0.25 μg/ml): 1.14 µM
- Kd [9]: 25.3 µM
- IC50 [10]: 349 µM
- reduction in CFU compared to untreated control ([11]; 0.5 µg/ml): 0.18 log10
- Log10CFU ([11]; 0.5 μg/ml): 4.85 ± 0.04
- reduction in CFU compared to untreated control ([11]; 1 µg/ml): 0.62 log10
- Log10CFU ([11]; 1 μg/ml): 4.41 ± 0.12
- reduction in CFU compared to untreated control ([11]; 2 µg/ml): 1.11 log10
- Log10CFU ([11]; 2 μg/ml): 3.92 ± 0.11
- PknB-catalyzed phosphorylation of GarA [12]: inhibited
- IC50 [13]: 44.3 µM
- Real-time reverse transcription PCR Normalized ΔCt (mean ± SD) ([14]; gene Rv2466c): 6.325 ± 2.51
- Real-time reverse transcription PCR Mean fold change (2^ΔΔCt Value) ([14]; gene rshA (Rv3221A)): 264.11
- Real-time reverse transcription PCR Normalized ΔCt (mean ± SD) ([14]; gene rshA (Rv3221A)): 8.045 ± 0.59
- Real-time reverse transcription PCR Mean fold change (2^ΔΔCt Value) ([14]; gene sigH (Rv3223c)): 5.88
- Real-time reverse transcription PCR Normalized ΔCt (mean ± SD) ([14]; gene sigH (Rv3223c)): 2.555 ± 0.11
- Real-time reverse transcription PCR Mean fold change (2^ΔΔCt Value) ([14]; gene trxB2 (Rv3913)): 7.67
- Real-time reverse transcription PCR Normalized ΔCt (mean ± SD) ([14]; gene trxB2 (Rv3913)): 2.940 ± 0.07
- Real-time reverse transcription PCR Mean fold change (2^ΔΔCt Value) ([14]; gene trxC (Rv3914)): 5.48
- Real-time reverse transcription PCR Normalized ΔCt (mean ± SD) ([14]; gene trxC (Rv3914)): 2.455 ± 0.06
- time until serum concentrations fall below the therapeutic range ([15]; oral delivery of 200 mg/kg): less than 1 hour
- serum Cmax ([15]; rat, in vivo, po, 200 mg/kg): sub-microgram/ml
- inhibition of Mycobacterium smegmatis [16]: inhibited
- IC50 [17]: > 640 µM
- IC50 [18]: > 640 µM
- IC50 [19]: 20.2 µM
- Kd [20]: 13.5 µM
- ΔG of binding to PknB ([20]; ITC, 25 °C): -6.64 kcal/mol
- ΔH of binding to PknB ([20]; ITC, 25 °C): -5.7 kcal/mol
- −TΔS of binding to PknB ([20]; ITC, 25 °C): -0.94 kcal/mol

SMILES: NNC(=O)c1ccncc1 [INH, isoniazid, reference compound]
- Log10CFU ([11]; 0.5 μg/ml): 3.24 ± 0.05
- Log10CFU ([11]; 1 μg/ml): 3.14 ± 0.06
- Log10CFU ([11]; 2 μg/ml): 2.57 ± 0.14
